US20250057928A1, “VACCINE COMPOSITION FOR INDUCING ANTI-IL-23 ANTIBODY” (OSAKA UNIVERSITY, priority 2021, published 2025)
Where no end group is shown, it is not given here.

Assays:
p19 subunit = biological target: T1, p19 subunit (Homo sapiens, UniProt Q9NPF7); details: compared with Ustekinumab; cited from earlier work
T1 sequence (Q9NPF7 20-189): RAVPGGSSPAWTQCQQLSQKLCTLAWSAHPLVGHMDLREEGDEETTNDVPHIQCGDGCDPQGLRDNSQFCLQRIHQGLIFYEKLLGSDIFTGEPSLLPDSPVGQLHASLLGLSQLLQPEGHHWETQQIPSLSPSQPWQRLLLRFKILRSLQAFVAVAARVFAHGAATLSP
T1 sequence (P29460 23-328 partner): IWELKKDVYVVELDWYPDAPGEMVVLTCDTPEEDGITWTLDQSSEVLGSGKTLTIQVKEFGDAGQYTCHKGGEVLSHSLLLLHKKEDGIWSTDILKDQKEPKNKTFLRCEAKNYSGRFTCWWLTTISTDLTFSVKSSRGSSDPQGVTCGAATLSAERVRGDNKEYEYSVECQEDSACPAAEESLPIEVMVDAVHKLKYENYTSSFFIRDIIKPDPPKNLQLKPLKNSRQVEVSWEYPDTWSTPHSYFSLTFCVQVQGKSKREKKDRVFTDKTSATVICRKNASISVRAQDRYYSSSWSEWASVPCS

[1] = test system: IL-17 production in rhIL-23 stimulated mouse splenocyte; assay: Neutralization activity of mouse antiserum: IL-17 production in rhIL-23 stimulated mouse splenocyte; type: cell-based; details: antiserum final 15-fold, rhIL-23 10 ng/ml, 3 days culture; IL-17A/F ELISA
Protocol: (§1) AJP001 conjugated peptide (SEQ ID NOs: 6-37) was dissolved in physiological saline, mixed with an equal amount of 2% Alhydrogel (invivogen), and this was intradermally administered to BALB/c mice (female, 6-week-old, N=5-6) at 0.5 mg/body 3 times at two-week intervals. Blood was collected before administration and at the time point of 6 weeks after initial administration, and the antibody titer (GMT) to each epitope sequence and binding ability to recombinant human IL-23 protein (rhIL-23) (Peprotech) were measured by the ELISA method (same method as in Example 1). The binding to rhIL-23 was evaluated by a binding ratio to normal serum by calculating the ratio of the absorbance of a well added with normal mouse serum to the absorbance of a well added with antiserum derived from a mouse administered with each AJP001 conjugated peptide (SEQ ID NOs: 6-37). In addition, the neutralization activity of mouse antiserum was evaluated using an action on IL-17 production in rhIL-23 stimulated mouse splenocyte as an index. The spleen of normal BALB/c mouse (female, 5-week-old, N=3) was triturated using a syringe barrel and a cell strainer and washed with and suspended in HBSS (−). Erythrocytes were then removed using ACK Buffer (Thermo fisher scientific), and splenocytes were isolated. The splenocytes were prepared to 2.5×10^6 cells/mL with 10% FBS/1% penicillin/streptomycin/4 ng/mL rmIL-2-containing RPMI1640 medium (culture medium), and seeded in a 96 well plate at 100 μl/well. The antiserum (final concentration 15-fold) of the mice administered with each AJP001 conjugated peptide and rhIL-23 (final concentration 10 ng/ml) were added to the culture medium, reacted at 37° C. for 2 hr, added at 100 μL/well to a 96-well plate seeded with splenocytes, and cultured for 3 days in a 37° C./5% CO2 incubator. An untreated well and a control well to which normal mouse serum and rhIL-23 were added were provided. IL-17A/F in the culture supernatant was measured using Mouse IL-17A/F ELISA kit (R&D systems), the proportion (%) of IL-17 to normal serum was calculated from the IL-17 concentrations of untreated well (A), control well (B), and well (C) to which antiserum of the mice administered with each AJP001 conjugated peptide was added and according to the following formula, and the neutralization activity was evaluated.
Percentage of IL-17 to normal serum (%)=100×(C−A/B−A)

epitope peptide = assay: Antibody titer (GMT) of serum of mice administered AJP001 conjugated peptide, ELISA; type: in vivo, mouse; details: BALB/c mice, 0.5 mg/body intradermal with equal amount of 2% Alhydrogel, 3 times at two-week intervals; serum 6 weeks after initial administration; titer to each epitope sequence
Protocol: AJP001 conjugated peptide having one of the B cell epitope sequences of SEQ ID NOs: 1-5 was dissolved in physiological saline and intradermally administered twice to BALB/c mice (female, 6-week-old, N=5-6) at 0.5 mg/body at 2-week intervals. Blood was collected before administration and 5 weeks after the initial administration, and the antibody titer against each AJP001 conjugated peptide and the binding ability to recombinant mouse IL-23 protein (rmIL-23) were measured by the ELISA method. Specifically, a 96-well plate immobilized with an epitope peptide dissolved at 10 μg/mL in carbonate buffer was blocked with 5% skim milk/PBS, and then serum serially diluted with 5% skim milk/PBS was added, and the mixture was left standing at 4° C. overnight. After washing the wells with PBS-T, HRP-labeled anti-mouse IgG antibody (GE Healthcare) diluted with 5% skim milk/PBS was added and the mixture was shaken at room temperature for 3 hr. After washing the wells with PBS-T, TMB solution (SIGMA) was added, the wells were allowed to stand for 30 min in the dark, the reaction was stopped by adding 0.5M H2SO4, and the absorbance at 450 nm was measured using a plate reader. The serum dilution rate that gave 1/2 (OD=1.75) of the maximum absorbance was defined as the antibody titer, and the geometric mean titer: GMT was calculated from the individual values. Binding to IL-23 protein was measured by the ELISA method in the same manner as the antibody titer, using rmIL-23 (Antibodies-online GmbH) as the solid-phased antigen and goat serum for blocking.
AJP001 conjugated peptide (SEQ ID NO: 2) was dissolved in physiological saline and intradermally administered to BALB/c mice (female, 6-week-old, N=6) at 1 mg/body 3 times at two-week intervals, and blood was collected every 2 weeks until 8 weeks. The antibody titer (GMT) of all the collected sera and the binding ability to rmIL-23 of the serum at the time point of 6 weeks were measured by the ELISA method (same method as in Example 1). The antibody titer and the binding of the induced antibody to rmIL-23 at each time point are shown in FIGS. 2 (a) and (b), respectively.
as §1, with “An untreated well and a control well to which normal mouse serum and rhIL-23 were added were provided. IL-17A/F in the culture supernatant was measured using Mouse IL-17A/F ELISA kit (R&D systems), the proportion (%) of IL-17 to normal serum was calculated from the IL-17 concentrations of untreated well (A), control well (B), and well (C) to which antiserum of the mice administered with each AJP001 conjugated peptide was added and according to the following formula, and the neutralization activity was evaluated.” left out

[2] = test system: recombinant human IL-23 protein (rhIL-23); assay: Binding of mouse antiserum to rhIL-23, ELISA; details: rhIL-23 ELISA; antiserum of BALB/c mice 6 weeks after initial administration, 0.5 mg/body with Alhydrogel
Protocol: as §1
AJP001 conjugated peptide (SEQ ID NO: 6) was dissolved in physiological saline and intradermally administered to BALB/c mice (female, 6-week-old, N=6) at 1 mg/body 3 times at two-week intervals, and blood was collected every 2 weeks until 8 weeks. The antibody titer (GMT) of all the collected sera and the binding ability to rhIL-23 of the serum at 6 weeks were measured by the ELISA method. In FIG. 5, “*” means P<0.05.

| binding to IL-23 (binding ratio to normal serum) [2] | Substance | PASI90 (almost complete disappearance of psoriasis lesion) rate (p19 subunit) | neutralization activity (percentage of IL-17 to normal serum (%)) [1] [%] | antibody titer (GMT) (epitope peptide) |
| --- | --- | --- | --- | --- |
|  | Risankizumab | about twice as high as that of Ustekinumab |  |  |
| 1.20 | 24 (STSQTWQR; not fully specified (N-terminus)) [compound 24] |  | 0.0 | 126353 |
| 1.03 | 32 (SQPWQR; not fully specified (N-terminus); listed as Homo sapiens) [compound 32] |  | 61.3 | 5567 |
| 1.30 | 35 (SQPWQRK; not fully specified (N-terminus); listed as Homo sapiens) [compound 35] |  | 32.5 | 92 |
| 1.26 | 17 (SSSQPWQR; not fully specified (N-terminus)) [compound 17] |  | 1.6 | 6096 |
| 1.35 | 22 (SSSQTWQR; not fully specified (N-terminus)) [compound 22] |  | 8.5 | 2160 |
| 0.99 | 31 (PSQPWQR; not fully specified (N-terminus); listed as Homo sapiens) [compound 31] |  | 63.4 | 12417 |
| 1.33 | 23 (STSQSWQR; not fully specified (N-terminus)) [compound 23] |  | 9.4 | 31720 |
| 1.37 | 8 (SASQPWQR; not fully specified (N-terminus)) [compound 8] |  | 1.4 | 3485 |
| 4.40 | 6 (SPSQPWQR; not fully specified (N-terminus); listed as Homo sapiens) [compound 6] |  | 15.8 | 12563 |
